Values of other authors in patent publication US20260297123A1, “METHODS FOR THE SYNTHESIS OF NUCLEOSIDE ANALOGUES AND NUCLEOSIDES ANALOGUES DERIVED THEREFROM” (SIMON FRASER UNIVERSITY, priority 2023, published 2026).
Read-outs that look alike come from different tables or passages of the source.

Settings: for pKa, H2O: values <0 and >14 extrapolated; for pKa, H2O (first of several listed) / pKa, (DMSO) (first of several listed): first value listed; for pKa, H2O (second of several listed) / pKa, (DMSO) (second of several listed): second value listed
[1] = DMSO (values in parentheses), values <0 and >35 extrapolated

SMILES | pKa, (DMSO) [1] | pKa, H2O (H2O) | further results
CC(=O)CSc1ccccc1 [drawing 77, X = SPh] | (18.7) | – | –
C[N+](C)(C)CC(=O)c1ccccc1 [drawing 82, X = N^+Me3] | (14.6) | – | –
CCCCS [BuSH] | (17.0) | 10-11 | –
CN(O)C(=O)c1ccccc1 | (16.5) | – | –
O=S(O)O [H2SO3] | – | – | pKa, H2O (first of several listed) (H2O): 1.9; pKa, H2O (second of several listed) (H2O): 7.21
O=[N+]([O-])Cc1ccccc1 [RNO2, R = CH2Ph] | (12.2) | – | –
OCC(F)(F)F [CF3CH2OH] | – | 12.5 | –
O=[N+]([O-])CSc1ccccc1 [PhSCH2X, X = NO2] | (11.8) | – | –
NS(=O)(=O)C(F)(F)F [CF3SO2NH2] | (9.7) | – | –
C1CN2CCN1CC2 [DABCO] | – | – | pKa, (DMSO) (first of several listed): 2.97; pKa, (DMSO) (second of several listed): 8.93; pKa, H2O (first of several listed) (H2O): 2.97; pKa, H2O (second of several listed) (H2O): 8.82
OC(C(F)(F)F)C(F)(F)F [(CF3)2CHOH] | (17.9) | – | –
C[S+](Cc1ccccc1)c1ccccc1 (centres unmarked) | – | – | pKa, (DMSO) (first of several listed): 16.2; pKa, (DMSO) (second of several listed): 16.3
O=[N+]([O-])c1cccc(O)c1 [m-C2NC6H4OH] | – | 8.35 | –
CC(=O)NC(C)=O [Ac2NH] | (17.9) | – | –
Oc1ccc2ccccc2c1 [2-napthol] | (17.1) | – | –
O=C(O)c1cccc([N+](=O)[O-])c1 [drawing 16, X = m-O2NC6H4] | – | 2.45 | –
O=C(O)c1cccc(Cl)c1 [drawing 16, X = m-ClC6H4] | – | 3.83 | –
CS(=O)(=O)Nc1ccccc1 [MeSO2NHPh] | (12.9) | – | –
O=C(CSc1ccccc1)c1ccccc1 [drawing 82, X = SPh] | (16.9) | – | –
CC(=O)CC(=O)c1ccccc1 [drawing 82, X = COCH3] | (12.7) | – | –
O=C(C[P+](c1ccccc1)(c1ccccc1)c1ccccc1)c1ccccc1 [Ph3P^+CH2COPh] | (6.2) | – | –
CN(C)c1cccc2cccc(N(C)C)c12 [Proton Spong ?] | – | – | pKa, (DMSO) (second of several listed): 7.50; pKa, H2O (second of several listed) (H2O): 12.0
O=C(O)c1ccc([N+](=O)[O-])cc1 [drawing 16, X = p-O2NC6H4] | – | 3.44 | –
[O]=[Cr](=[O])([OH])[OH] [H2CrO4] | – | – | pKa, H2O (first of several listed) (H2O): −0.98; pKa, H2O (second of several listed) (H2O): 6.50

SMILES | pKa, (DMSO) [1] | pKa, H2O (H2O) | further results
OCl [HOCl] | – | 7.5 | –
NS(=O)(=O)c1ccccc1 [PhSO2NH2] | (16.1) | – | –
c1ccc(Nc2ccccc2)cc1 [Ph2N^+H2] | – | 0.78 | –
C1CCC2=NCCCN2CC1 [DBU] | – | – | pKa, (DMSO) (dmso): (12) (estimate)
O=[N+]([O-])CCc1ccccc1 [RNO2, R = CH2Bn] | (16.2) | – | –
CN(C)c1ccccc1 [PhN^+(Me)2H] | (2.50) | 5.20 | –
N#CC[P+](c1ccccc1)(c1ccccc1)c1ccccc1 [Ph3P^+CH2CN] | (7.0) | – | –
CC(=O)OO [CH3CO3H] | – | 8.2 | –
OO [HOOH] | – | 11.6 | –
NC(=O)C(F)(F)F [drawing 41, R = CF3] | (17.2) | – | –
CCOC(=O)CC(C)=O | (14.2) | 11 | –
O=C(CC(=O)c1ccccc1)c1ccccc1 [drawing 82, X = COPh] | (13.3) | – | –
O=[N+]([O-])O [HNO3] | – | −1.3 | –
F [HF] | (15) | 3.17 | –
C1=Cc2ccccc2C1 | – | 20 | –
C[N+](C)(C)c1ccccc1C(=O)O [drawing 16, X = o-(CH3)3N^+C6H4] | – | 1.37 | –
NNC(=O)c1ccccc1 | (18.9) | – | –
O=C(NO)c1ccccc1 | (13.7) | – | pKa, H2O (NH) (H2O, NH): 8.88 (NH)
N#CS [HSCN] | – | 4.00 | –
CC(=O)C(C)(C)C | – | – | pKa, (DMSO) (dmso): (27.7)
NNS(=O)(=O)c1ccccc1 [PhSO2NHNH2] | (17.2) | – | –
O=C1CCCN1 | – | 12 | –
O=S(=O)(O)C(F)(F)F [CF3SO3H] | (0.3) | – | –
C=CC(=O)O [drawing 17, R = H] | – | 4.25 | –

SMILES | pKa, (DMSO) [1] | pKa, H2O (H2O) | further results
O=C(C[N+](=O)[O-])c1ccccc1 [drawing 82, X = NO2] | (7.7) | – | –
Oc1ccccn1 | (17.0) | – | –
CC[N+](=O)[O-] [RNO2, R = CH2Me] | (16.7) | – | –
O=C(C[Se]c1ccccc1)c1ccccc1 [drawing 82, X = SePh] | (18.6) | – | –
C[N+](=O)[O-] [RNO2, R = CH3] | (17.2) | – | –
CC(=O)Cc1ccccc1 [drawing 77, X = Ph] | (19.8) | – | –
N#CC1SCCCS1 [drawing 97, X = CN] | (19.1) | – | –
CC(C)[N+](=O)[O-] [RNO2, R = CHMe2] | (16.9) | – | –
CCC(=O)CC | – | 19-20 | –
CN(C)C(=N)N(C)C | (13.5) | – | –
CC(=O)CC(C)=O [drawing 77, X = COCH3] | (13.3) | 9 | –
CCOC(=O)C[N+](C)(C)C | (20.0) | – | –
OB(O)O [B(OH)3] | – | 9.23 | –
N#CCC(=O)c1ccccc1 [drawing 82, X = CN] | (10.2) | – | –
Br [HBt] | (0.9) | – | –
NCCN | – | – | pKa, H2O (first of several listed) (H2O): 6.90; pKa, H2O (second of several listed) (H2O): 9.95
CCP(CC)CC [Et3P^+H] | – | 9.1 | –
O=C(O)O [drawing 16, X = HO] | – | – | pKa, H2O (first of several listed) (H2O): 3.6
O=C(Cc1ccccc1)c1ccccc1 [drawing 82, X = Ph] | (17.7) | – | –
O=C(O)C(Cl)(Cl)Cl [drawing 16, X = CCl3] | – | 0.65 | –
Nc1ccc2ccccc2c1 [2-naphthal-N^+H3] | – | 4.16 | –
C[N+](C)(C)c1ccc(C(=O)O)cc1 [drawing 16, X = p-(CH3)3N^+C6H4] | – | 3.43 | –
COc1ccc(O)cc1 [p-OMeC6H4OH] | (19.1) | 10.20 | –
O=[N+]([O-])c1ccc(O)cc1 [p-O2NC6H4OH] | (10.8) | 7.14 | –

SMILES | pKa, (DMSO) [1] | pKa, H2O (H2O) | further results
O=C(O)C[N+](=O)[O-] [drawing 16, X = CH2NO2] | – | 1.68 | –
CN(C)c1ccncc1 [DMAP] | – | 9.2 | –
ON=C(c1ccccc1)c1ccccc1 | – | 11.3 | –
O=C(O)C(F)(F)F [drawing 16, X = CF3] | – | −0.25 | –
O=S(=O)(CSc1ccccc1)C(F)(F)F [PhSCH2X, X = SO2CF3] | (11.0) | – | –
CC(=O)CS(=O)(=O)c1ccccc1 [drawing 77, X = SO2Ph] | (15.1) | – | –
CC(C)O [i-PrOH] | – | 16.5 | –
CC(C)(C)O [t-BuOH] | – | 17 | –
N#CCC(=O)N1CCCC1 | (17.2) | – | –
CO [MeOH] | – | 15.54 | –
O=C1NC(=O)c2ccccc21 | – | 6.30 | –
CCC(=O)Nc1ccccc1 | – | – | pKa, (DMSO) (dmso): (21.6)
C[N+](C)(C)CS(=O)(=O)c1ccccc1 [drawing 107, X = N^+Me3] | (19.4) | – | –
CS(=O)(=O)C(F)(F)F | (18.8) | – | –
COO [MeOOH] | – | 11.5 | –
N#CCS(=O)(=O)c1ccccc1 [drawing 107, X = CN] | (12.0) | – | –
O=NO [HNO2] | – | 3.29 | –
N#CN [NCNH2] | (16.9) | – | –
CS(N)(=O)=O [MeSO2NH2] | (17.5) | – | –
CC(=O)CS(=O)(=O)c1ccccc1 [drawing 107, X = COMe] | (12.5) | – | –
O=C(CS(=O)(=O)c1ccccc1)c1ccccc1 [drawing 82, X = SO2Ph] | (11.4) | – | –
O=[N+]([O-])CS(=O)(=O)c1ccccc1 [drawing 107, X = NO2] | (7.1) | – | –
